Measured values taken from patent US20230049952A1, “METHODS AND COMPOUNDS FOR RESTORING MUTANT P53 FUNCTION” (PMV Pharmaceuticals, Inc., priority 2020, published 2023).

Assays:
human hepatocytes = test: metabolic stability in cryopreserved hepatocytes; format: in vitro ADME
Procedure: (§1) Mixed-gender human cryopreserved hepatocytes, male Sprague-Dawley rat cryopreserved hepatocytes, male CD-1 mouse cryopreserved hepatocytes, male beagle dog cryopreserved hepatocytes, and male cynomolgus monkey cryopreserved hepatocytes were used for the study. The hepatocytes were thawed, pooled into Krebs Henseleit buffer (KHB, pH 7.4), and kept on ice prior to the experiments. […] Each experiment was performed in triplicate. The final DMSO content in the incubation mixture was ≤0.1%. […] Positive controls, testosterone (1 μM) and 7-hydroxycoumarin (7-HC) (100 μM), were performed in parallel to confirm the activity of the hepatocytes. […] Aliquots of testosterone were withdrawn (n=1) at 0, 5, 15, 30, 60, and 120 minutes. Aliquots of 7-HC were withdrawn (n=1) at 0 and 15 minutes. The reaction was immediately terminated by adding three volumes of ice-cold MeCN containing IS. The samples were then mixed and spun by centrifuge to precipitate proteins. An aliquot of the supernatant was then diluted with water. Calibration standards for the analysis of 7-HC metabolites were prepared in matched matrix. […] All samples were analyzed by LC-MS/MS. The peak area response ratio (PARR) vs. IS was compared to the PARR at time 0 to determine the percent remaining at each time point. Half-lives and clearance values were calculated using GraphPad software, fitting to a single-phase exponential decay equation.
(§2) Mixed-gender human cryopreserved hepatocytes, male Sprague-Dawley rat cryopreserved hepatocytes, male CD-1 mouse cryopreserved hepatocytes, male beagle dog cryopreserved hepatocytes, and male cynomolgus monkey cryopreserved hepatocytes were thawed and pooled into KHB buffer (pH 7.4) and kept on ice prior to the experiments. […] Each experiment was performed in triplicate. The final DMSO content in the incubation mixture was ≤0.1%.
(§3) Positive controls, testosterone (1 μM) and 7-hydroxycoumarin (7-HC) (100 μM), were performed in parallel to confirm the activity of the hepatocytes. […] Aliquots of testosterone were withdrawn (n=1) at 0, 5, 15, 30, 60, and 120 minutes. Aliquots of 7-HC were withdrawn (n=1) at 0 and 15 minutes. The reaction was immediately terminated by adding three volumes of ice-cold MeCN containing IS. The samples were then mixed and spun by centrifuge to precipitate proteins. An aliquot of the supernatant was then diluted with water. Calibration standards for the analysis of 7-HC metabolites were prepared in matched matrix. […] All samples were analyzed by LC-MS/MS. Analytical conditions are outlined below. The peak area response ratio (PARR) vs. IS was compared to the PARR at time 0 to determine the percent remaining at each time point. Half-lives and clearance values were calculated using GraphPad software, fitting to a single-phase exponential decay equation.

[1] = metabolic stability in cryopreserved hepatocytes; format: in vitro ADME, rat
Procedure: as §1, §2, §3

[2] = metabolic stability in cryopreserved hepatocytes; format: in vitro ADME, mouse
Procedure: as §1, §2, §3

[3] = metabolic stability in cryopreserved hepatocytes; format: in vitro ADME, dog
Procedure: Mixed-gender human cryopreserved hepatocytes, male Sprague-Dawley rat cryopreserved hepatocytes, male CD-1 mouse cryopreserved hepatocytes, male beagle dog cryopreserved hepatocytes, and male cynomolgus monkey cryopreserved hepatocytes were used for the study. The hepatocytes were thawed, pooled into Krebs Henseleit buffer (KHB, pH 7.4), and kept on ice prior to the experiments. […] Each experiment was performed in triplicate. The final DMSO content in the incubation mixture was ≤0.1%. […] Aliquots of testosterone were withdrawn (n=1) at 0, 5, 15, 30, 60, and 120 minutes. Aliquots of 7-HC were withdrawn (n=1) at 0 and 15 minutes. The reaction was immediately terminated by adding three volumes of ice-cold MeCN containing IS. The samples were then mixed and spun by centrifuge to precipitate proteins. An aliquot of the supernatant was then diluted with water. Calibration standards for the analysis of 7-HC metabolites were prepared in matched matrix. […] All samples were analyzed by LC-MS/MS. The peak area response ratio (PARR) vs. IS was compared to the PARR at time 0 to determine the percent remaining at each time point. Half-lives and clearance values were calculated using GraphPad software, fitting to a single-phase exponential decay equation.
as §2
Aliquots of testosterone were withdrawn (n=1) at 0, 5, 15, 30, 60, and 120 minutes. Aliquots of 7-HC were withdrawn (n=1) at 0 and 15 minutes. The reaction was immediately terminated by adding three volumes of ice-cold MeCN containing IS. The samples were then mixed and spun by centrifuge to precipitate proteins. An aliquot of the supernatant was then diluted with water. Calibration standards for the analysis of 7-HC metabolites were prepared in matched matrix. […] All samples were analyzed by LC-MS/MS. Analytical conditions are outlined below. The peak area response ratio (PARR) vs. IS was compared to the PARR at time 0 to determine the percent remaining at each time point. Half-lives and clearance values were calculated using GraphPad software, fitting to a single-phase exponential decay equation.

[4] = metabolic stability in cryopreserved hepatocytes; format: in vitro ADME, cynomolgus monkey
Procedure: as §1, §2, §3

CYP2B6 [5] = biological target: T1, CYP2B6 (Homo sapiens, UniProt P20813); test: CYP inhibition in human liver microsomes; format: in vitro ADME; set-up: from tissue; host or cells: pooled human liver microsomes, 200 donors; details: both sexes, pooled human liver microsomes, pH 7.4, HLM, read-out: % of Control Enzyme Activity
T1 sequence (P20813 1-491): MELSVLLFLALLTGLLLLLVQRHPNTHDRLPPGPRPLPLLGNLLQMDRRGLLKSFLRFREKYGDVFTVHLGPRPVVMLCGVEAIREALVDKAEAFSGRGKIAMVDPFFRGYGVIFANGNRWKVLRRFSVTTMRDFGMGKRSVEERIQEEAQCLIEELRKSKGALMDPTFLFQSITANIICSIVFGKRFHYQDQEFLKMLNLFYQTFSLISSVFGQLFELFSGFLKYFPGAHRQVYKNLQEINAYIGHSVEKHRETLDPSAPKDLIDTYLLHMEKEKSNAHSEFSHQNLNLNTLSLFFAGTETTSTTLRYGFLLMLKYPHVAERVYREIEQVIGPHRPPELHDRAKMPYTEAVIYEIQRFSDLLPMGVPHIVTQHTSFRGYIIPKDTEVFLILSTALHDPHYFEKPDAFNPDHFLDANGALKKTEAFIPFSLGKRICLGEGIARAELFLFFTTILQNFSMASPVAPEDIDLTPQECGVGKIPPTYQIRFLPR
Procedure: The HLMs were stored at −80° C. until use.
Negative (vehicle) controls were conducted without a test article.

CYP2B6 [6] = biological target: T1, CYP2B6; test: time-dependent CYP inhibition in human liver microsomes (IC50 shift); details: both, pooled human liver microsomes, pH 7.4, % of Control Enzyme Activity; for activity at 20 min, 0.37 µM: 0.370 μM
in vitro = details: male, plasma
Procedure: Studies were carried out in mixed-gender human plasma, male Sprague-Dawley rat plasma, male CD-1 mouse plasma, male Beagle dog plasma, and male Cynomolgus monkey plasma collected on sodium heparin. A Rapid Equilibrium Dialysis (RED) device was used for all experiments. […] Blank PBS (500 μL) was added to each corresponding receiver chamber. The device was then placed into an enclosed heated rocker that was pre-warmed to 37° C., and allowed to incubate for four hours. After 4 hours of incubation, both sides were sampled.
Aliquots (50 μL for donor, 200 μL for receiver) were removed from the chambers and placed into a 96-well plate. Plasma (50 μL) was added to the wells containing the receiver samples, and 200 μL of PBS was added to the wells containing the donor samples. Two volumes of acetonitrile were added to each well, and the plate was mixed and then centrifuged at 3,000 rpm for 10 minutes. Aliquots of the supernatant were removed, and analyzed by LCMS/MS. Calibration standards were prepared in a matched matrix and prepared similarly to the assay samples. Binding and recovery values were calculated as follows: % Bound=[(Concentration in Donor−Concentration in Receiver)/(Concentration in Donor)]×100; % Recovery=[(Concentration in Donor+Concentration in Receiver)/(Nominal Dosing Concentration)]×100.

P-GP = P-GP (Homo sapiens, UniProt P08183); test: in vitro; details: pH 7.4
[7] = Human cryopreserved hepatocytes, positive control 7-hydroxycoumarin 100 μM
[8] = Human hepatocytes, from 7-hydroxycoumarin (7-HC) 100 μM positive control
[9] = Rat cryopreserved hepatocytes, positive control 7-hydroxycoumarin 100 μM
[10] = Rat hepatocytes, from 7-hydroxycoumarin (7-HC) 100 μM positive control
[11] = Mouse cryopreserved hepatocytes, positive control 7-hydroxycoumarin 100 μM
[12] = Mouse hepatocytes, from 7-hydroxycoumarin (7-HC) 100 μM positive control
[13] = Dog cryopreserved hepatocytes, positive control 7-hydroxycoumarin 100 μM
[14] = Dog hepatocytes, from 7-hydroxycoumarin (7-HC) 100 μM positive control
[15] = Monkey cryopreserved hepatocytes, positive control 7-hydroxycoumarin 100 μM
[16] = Monkey hepatocytes, from 7-hydroxycoumarin (7-HC) 100 μM positive control

Sequence of P-GP (P08183 whole entry): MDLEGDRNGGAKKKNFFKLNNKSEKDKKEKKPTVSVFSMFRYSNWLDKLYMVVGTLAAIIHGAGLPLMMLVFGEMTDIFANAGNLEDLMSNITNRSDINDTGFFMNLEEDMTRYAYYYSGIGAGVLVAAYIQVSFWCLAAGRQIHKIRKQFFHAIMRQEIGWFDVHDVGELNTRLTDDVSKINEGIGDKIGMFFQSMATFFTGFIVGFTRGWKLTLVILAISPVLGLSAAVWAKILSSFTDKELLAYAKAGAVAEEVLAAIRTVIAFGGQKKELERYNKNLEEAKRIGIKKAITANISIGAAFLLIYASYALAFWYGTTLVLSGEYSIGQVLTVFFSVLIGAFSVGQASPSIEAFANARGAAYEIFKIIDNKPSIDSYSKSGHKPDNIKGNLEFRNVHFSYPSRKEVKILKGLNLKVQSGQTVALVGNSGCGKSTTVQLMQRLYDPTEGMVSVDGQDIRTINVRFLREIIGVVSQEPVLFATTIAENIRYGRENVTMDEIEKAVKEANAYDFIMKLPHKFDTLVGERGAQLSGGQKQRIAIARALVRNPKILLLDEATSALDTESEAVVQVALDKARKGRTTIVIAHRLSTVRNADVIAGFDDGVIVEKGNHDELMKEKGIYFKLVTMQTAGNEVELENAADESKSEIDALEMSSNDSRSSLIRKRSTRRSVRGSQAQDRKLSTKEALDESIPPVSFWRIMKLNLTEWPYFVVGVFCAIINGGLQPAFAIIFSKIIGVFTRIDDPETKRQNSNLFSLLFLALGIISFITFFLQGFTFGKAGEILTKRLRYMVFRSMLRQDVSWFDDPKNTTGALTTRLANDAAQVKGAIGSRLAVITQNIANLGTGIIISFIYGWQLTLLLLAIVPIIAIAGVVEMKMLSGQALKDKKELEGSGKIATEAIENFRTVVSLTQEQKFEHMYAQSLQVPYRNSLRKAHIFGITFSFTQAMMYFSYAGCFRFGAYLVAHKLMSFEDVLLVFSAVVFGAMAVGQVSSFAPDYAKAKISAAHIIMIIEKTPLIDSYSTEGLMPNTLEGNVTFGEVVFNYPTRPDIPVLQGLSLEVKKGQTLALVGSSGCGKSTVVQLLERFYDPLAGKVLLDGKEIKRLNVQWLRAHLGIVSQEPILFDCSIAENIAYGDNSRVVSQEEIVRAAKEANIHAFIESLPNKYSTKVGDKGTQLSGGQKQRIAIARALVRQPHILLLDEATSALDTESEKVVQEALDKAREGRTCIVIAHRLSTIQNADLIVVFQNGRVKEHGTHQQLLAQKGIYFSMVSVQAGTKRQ

## O=C(O)[C@H]1O[C@@H](Oc2ccc3ccc(=O)oc3c2)[C@H](O)[C@@H](O)[C@@H]1O [Compound 7-HC-G]
Human hepatocytes; [7]
  Formation Rate: 316 pmol/min/10^6 cells
Human hepatocytes; [8]
  Formation Rate: 316 pmol/min/10^6 cells
[1]; [9]
  Formation Rate: 253 pmol/min/10^6 cells
[1]; [10]
  Formation Rate: 253 pmol/min/10^6 cells
[2]; [11]
  Formation Rate: 234 pmol/min/10^6 cells
[2]; [12]
  Formation Rate: 234 pmol/min/10^6 cells
[3]; [13]
  Formation Rate: 301 pmol/min/10^6 cells
[3]; [14]
  Formation Rate: 301 pmol/min/10^6 cells
[4]; [15]
  Formation Rate: 279 pmol/min/10^6 cells
[4]; [16]
  Formation Rate: 279 pmol/min/10^6 cells

## S=P(N1CC1)(N1CC1)N1CC1 [Thio-TEPA]
CYP2B6 [5]; 0.123 μM
  activity at 20 min, 0.123 µM: 97%
CYP2B6 [5]; 0.370 μM
  activity at 20 min, 0.37 µM: 97.3%
CYP2B6 [5]; 3.33 μM
  activity at 20 min, 3.33 µM: 69.7%
CYP2B6 [5]; 10.0 μM
  activity at 20 min, 10 µM: 44.3%
CYP2B6 [5]; 30.0 μM
  activity at 20 min, 30 µM: 25.6%
CYP2B6 [6]; pre-incubation 30 min +NADPH
  activity at 20 min, 0.37 µM: 86.4%
  activity at 20 min, 3.33 µM: 37.6%
  activity at 20 min, 10 µM: 18%
  activity at 20 min, 30 µM: 11.7%
CYP2B6 [6]; pre-incubation 30 min −NADPH
  activity at 20 min, 0.37 µM: 92.5%
  activity at 20 min, 3.33 µM: 78.5%
  activity at 20 min, 10 µM: 58.6%
  activity at 20 min, 30 µM: 41.4%

## CC(=O)CC(c1ccccc1)c1c(O)c2ccccc2oc1=O (stereo not shown) [Warfarin, warfarin]
In vitro; Beagle, dog, % Bound Mean
  fraction unbound at 4 h, 10 μM: 0.026
In vitro; Beagle, dog, % Bound R1-R3
  fraction unbound at 4 h, 10 μM: 0.027
In vitro; CD-1, mouse, % Bound Mean
  fraction unbound at 4 h, 10 μM: 0.217
In vitro; CD-1, mouse, % Bound R1-R3
  fraction unbound at 4 h, 10 μM: 0.226
In vitro; monkey, % Bound Mean
  fraction unbound at 4 h, 10 μM: 0.006
In vitro; monkey, % Bound R1-R3
  fraction unbound at 4 h, 10 μM: 0.007

## O=c1ccc2ccc(OS(=O)(=O)[O-])cc2o1.[K+] [Compound 7-HC-S]
Human hepatocytes; [7]
  Formation Rate: 7.74 pmol/min/10^6 cells
Human hepatocytes; [8]
  Formation Rate: 7.74 pmol/min/10^6 cells
[1]; [9]
  Formation Rate: 34.0 pmol/min/10^6 cells
[1]; [10]
  Formation Rate: 34 pmol/min/10^6 cells
[2]; [11]
  Formation Rate: 6.36 pmol/min/10^6 cells
[2]; [12]
  Formation Rate: 6.36 pmol/min/10^6 cells
[3]; [13]
  Formation Rate: 24.5 pmol/min/10^6 cells
[3]; [14]
  Formation Rate: 24.5 pmol/min/10^6 cells
[4]; [15]
  Formation Rate: 13.3 pmol/min/10^6 cells
[4]; [16]
  Formation Rate: 13.3 pmol/min/10^6 cells

## C/C=C/C[C@@H](C)C(=O)[C@H]1C(=O)N[C@@H](C(C)C)C(=O)N(C)CC(=O)N(C)[C@@H](CC(C)C)C(=O)N[C@@H](C(C)C)C(=O)N(C)[C@@H](CC(C)C)C(=O)N[C@@H](C)C(=O)N[C@H](C)C(=O)N(C)[C@@H](CC(C)C)C(=O)N(C)[C@@H](CC(C)C)C(=O)N(C)[C@@H](C(C)C)C(=O)N1C [Valspodar, valspodar]
P-GP
  inhibition at 120 min, 1 µM: 100%
